Laboratory results from US7309484B2, “Compositions and methods for screening antibacterial compounds” (priority 2003, dated 2007).

Assays:
[1] = system: liaI expression (liaI::pMUTIN lacZ fusion, strain BFS2470; also liaH::pMUTIN, BFS2469); assay: Disk-diffusion assay, blue ring on X-Gal plates; type: cell-based, Bacillus subtilis; conditions: for disk-diffusion assay: qualitative screen of β-Galactosidase activity, blue ring at edge of zone of inhibition, LB plates with X-Gal, strain BFS2470; for induction of liaI / liaH expression, in words: strains BFS2469 and BFS2470; on Disk-diffusion assay: key: −: no induction; +: induction of yvql expression
From the text: The pMUTIN-insertion results in a disruption of the targeted gene and generates a transcriptional fusion to lacZ thereby allowing detection of both antibiotic sensitivity (as defined by the zone of inhibition around the disk) and inducibility (by the formation of a blue ring at the edge of the zone of inhibition) (Cao et al., 2002, Mol Microbiol. 45: 1267-1276, the entire teaching of which is incorporated herein). The disruption of liaI and liaH had no effect on the sensitivity of the mutants to any of the antibiotics tested. […] Equivalent levels of induction were also observed with the PliaI-74-cat-lacZ fragment (in HB0950), albeit with lower fold-changes (See, Table 2). While the mode of action is different for these antibiotics, all four interfere with the lipid II cycle, essential for the biosynthesis of cell envelope polymers (Lazar et al., 2002, Curr. Opin. Chem. Biol. 6: 786-93).
PliaI induction assays: Screening for liaI induction was done by disk diffusion assay essentially as described (Cai, S. J., and M. Inouye, 2002, J Biol Chem 277:24155-61). B. subtilis strains were inoculated from a fresh overnight LB agar plate and grown to mid-log phase (OD600 ˜0.45) at 37 YC with shaking. 20 μl of the culture was mixed with 3 ml of 0.7% soft LB agar (containing 40 μg of X-Gal per plate) and poured onto the bottom agar. After cooling and drying of the plates (20 min at 37 YC), filter paper disks (6 mm diameter) carrying 5 μl of stock solution (antibiotics normally 100 mg/ml; lysozyme 10 mg/ml; tunicamycin, surfactants, uncouplers 5 mg/ml each; inhibitors of protein biosynthesis as given in the media and growth conditions section) were placed on top of the agar. The plates were incubated at 37 YC overnight. After 12-24 h incubation, the plates were scored for the appearance of a blue ring at or near the edge of the zone of growth inhibition produced by the diffusion of the antibiotics from the filter disk.

[2] = system: liaI expression (pMUTIN-derived lacZ fusion, strain BFS2470); assay: microbe, parasite or virus in culture; conditions: for fold induction of liaI expression: text to FIG. 4: bacitracin 100 μg/mL, tunicamycin 50 μg/mL, vancomycin 2 μg/mL, 30 minutes, nisin, ramoplanin results not shown
Method: Disc-diffusion assays were used to determine the spectrum of stimuli that induce the expression of liaIH. The B. subtilis strains BFS2469 and BFS2470 (Table 2), harboring pMUTIN-insertions in liaH and liaI respectively, were plated on a medium containing the indicator dye X-gal and overlaid with filter disks impregnated with various antibiotics that interfere with cell wall biosynthesis. Specifically, cultures of B. subtilis strain BFS2469 (liaH::pMUTIN) and BFS2470 (liaI::pMUTIN) were grown in LB medium to midlog phase, 2 mL for the un-induced control sample were harvested, and the remaining culture was induced with the three antibiotics for 30 minutes, before the cells of the induced sample were harvested. All samples were taken in duplicate from two independent cultures and the standard deviation is indicated by error bars.
Measurement of induction by β-galactosidase assays: Cells were inoculated from fresh overnight LB-plates and grown in LB-medium at 37° C. with aeration until they reached an O.D.600=0.45. 2 mL of cultures were harvested (un-induced control) and the cell pellets were shock frozen and kept at −70° C. The cultures were induced by addition of antibiotics to a final concentration of: bacitracin (100 μg/mL), tunicamycin (50 μg/mL) or vancomycin (2 μg/mL) and incubated for additional 30 min at 37° C. 2 mL of the cultures were harvested as described above (induced sample). The pellets were re-suspended in 1 mL of working buffer and assayed for β-galactosidase activity as described with normalization to cell density (Miller, 1972, the entire teaching of which is incorporated herein by reference).
For quantitative measurements of β-galactosidase activity, cells were inoculated from fresh overnight LB-plates and grown in LB medium at 37 YC with aeration until they reached an OD600 of 0.45. 2 ml of the culture was harvested (un-induced control) and the cell pellets were frozen and kept at −80 YC. The cultures were induced by addition of the compound to be tested to the final concentration as described in the individual figure legends and incubated for an additional 30 min at 37 YC. 2 ml of the cultures were harvested as described above. The pellets were re-suspended in 1 ml of working buffer (60 mM Na2HPO4, 40 mMNaH2PO4, 10 mM KCl, 1 mM MgSO4, 4 mM DTT) and assayed for β-galactosidase activity as described with normalization to cell density Kobayashi, K., et al., 2001, J Bacteriol 183:7365-7370). […] A sample was taken after 30 min for β-galactosidase assay and the turbidity of the remaining culture was measured for at least 5 hours to monitor the concentration-dependent effects of the antibiotics on cell growth.

[3] = system: B. subtilis strain BFS2470; assay: Concentration-dependent induction/killing experiments; type: cell-based, Bacillus subtilis; conditions: for lacZ-expression at higher concentration: FIG. 7a; for lacZ-expression at higher concentration / effect on cell growth / optical density: in words; for effect on cell growth / optical density: high concentrations, FIG. 7b; for antibiotic concentration at maximum induction of liaI: β-galactosidase assay after 30 min, 0.01 to 100 μg/ml tested
Method: Concentration-dependent induction/killing experiments were performed for bacitracin, nisin, ramoplanin and vancomycin as shown in FIG. 7. In all four cases the induction of liaI occurred in a concentration-dependent manner (FIG. 7a), reaching a maximum at an antibiotic concentration of about 10 μg/ml (1 μg/mL for vancomycin). The time of antibiotic addition is indicated by an arrow. The antibiotic concentrations affecting the induction of PliaI according to the β3-galactosidase assay are indicated by white symbols. The corresponding concentrations are: bacitracin ([…]), nisin (50, 70 and 100 μg/ml), ramoplanin (20, 50 and 100 μg/mL) and vancomycin (5, 10, 50 and 100 μg/mL).
This finding correlates well with the bactericidal effects of these antibiotics as inferred from the dramatic decrease of optical density: there is little effect of bacitracin and vancomycin on cell growth during the first 30-60 min after addition even at high concentrations (FIG. 7b).
The cultures were incubated with aeration at 37° C.

[4] = system: liaI expression in B. subtilis; conditions: 10 min after vancomycin addition; cited from earlier work

Row | Compound | disk-diffusion assay [1] | further results
1 | CC1(C)S[C@@H]2[C@H](NC(=O)[C@H](N)c3ccccc3)C(=O)N2[C@H]1C(=O)O [Ampicillin] | − | 
2 | CCCCCCCCCCCC[N+](C)(C)Cc1ccccc1.[Br-] [BDMDDA-Br, Benzyldimethyldodecylammonium bromide] | − | 
3 | CCCCCCCCCCCCCCCC[N+](C)(C)Cc1ccccc1.[Cl-] [BDMHDA-Cl, Benzyldimethylhexadecylammonium chloride] | + | induction of liaI / liaH expression, in words [1]: moderately induced
4 | N#CC(C#N)=NNc1cccc(Cl)c1 [CCCP] | − | induction of liaI / liaH expression, in words [1]: neither elevated liaIH expression
5 | O=C(N[C@H](CO)[C@H](O)c1ccc([N+](=O)[O-])cc1)C(Cl)Cl [Chloramphenicol] | − | 
6 | N[C@@H]1CONC1=O [D-cycloserin] | − | 
7 | O=[N+]([O-])c1ccc(O)c([N+](=O)[O-])c1 [DNP] | − | induction of liaI / liaH expression, in words [1]: neither elevated liaIH expression
8 | CCCCCCCCCCCCCCCC[N+](C)(C)C.[Br-] [HDTMA-Br, Hexadecyltrimethylammonium] | − | 
9 | CC1(C)S[C@@H]2[C@H](NC(=O)Cc3ccccc3)C(=O)N2[C@H]1C(=O)O [Penicillin G] | − | 
10 | CCCCCCCCCCCCOS(=O)(=O)[O-].[Na+] [SDS, sodium dodecylsulfate] | − | 
11 | CN[C@H](CC(C)C)C(=O)N[C@H]1C(=O)N[C@@H](CC(N)=O)C(=O)N[C@H]2C(=O)N[C@H]3C(=O)N[C@H](C(=O)N[C@H](C(=O)O)c4cc(O)cc(O)c4-c4cc3ccc4O)[C@H](O)c3ccc(c(Cl)c3)Oc3cc2cc(c3O[C@@H]2O[C@H](CO)[C@@H](O)[C@H](O)[C@H]2O[C@H]2C[C@](C)(N)[C@H](O)[C@H](C)O2)Oc2ccc(cc2Cl)[C@H]1O [Vancomycin] | + | induction of liaI / liaH expression, in words [1]: induced; fold induction at 2 µg/mL ([2]; Bacillus subtilis, 0.5 h, read-out: fold induction of liaI expression): ~65; lacZ-expression at higher concentration [3]: remained elevated; effect on cell growth / optical density [3]: little effect; antibiotic concentration at maximum induction of liaI [3]: ~1 µg/mL; increase in liaI expression level [4]: more than 100 fold
12 | NC[C@H]1O[C@H](O[C@H]2[C@H](O)[C@@H](O[C@H]3O[C@H](CO)[C@@H](O)[C@H](N)[C@H]3O)[C@H](N)C[C@@H]2N)[C@H](O)[C@@H](O)[C@@H]1O [kanamycin] | − | 
13 | CO[C@H]1/C=C/O[C@@]2(C)Oc3c(C)c(O)c4c(O)c(c(/C=N/N5CCN(C)CC5)c(O)c4c3C2=O)NC(=O)/C(C)=C\C=C\[C@H](C)[C@H](O)[C@@H](C)[C@@H](O)[C@@H](C)[C@H](OC(C)=O)[C@@H]1C [rifampicin] | − | 
14 | CN[C@@H]1[C@H](O)[C@H](NC)[C@H]2O[C@@]3(O)C(=O)C[C@@H](C)O[C@H]3O[C@@H]2[C@H]1O [spectinomycin] | − | 
15 | [H]/N=C(/N)N[C@H]1[C@H](O)[C@@H](O)[C@H](O[C@@H]2O[C@@H](C)[C@](O)(C=O)[C@H]2O[C@@H]2O[C@@H](CO)[C@H](O)[C@@H](O)[C@@H]2NC)[C@@H](N/C(N)=N\[H])[C@@H]1O [streptomycin] | − | 
16 | CN(C)[C@@H]1C(O)=C(C(N)=O)C(=O)[C@@]2(O)C(O)=C3C(=O)c4c(O)cccc4[C@@](C)(O)[C@H]3C[C@@H]12 [tetracycline] | − | 
17 | Lysozyme | − | induction of liaI / liaH expression, in words [1]: ineffective as an inducer
18 | Moenomycin | − | 
19 | Polymyxin B | − | 
20 | Ramoplanin | + | induction of liaI / liaH expression, in words [1]: induced; fold induction of liaI expression [2]: 420 fold; lacZ-expression at higher concentration [3]: strong decrease down to un-induced levels; effect on cell growth / optical density [3]: rapid cell lysis; antibiotic concentration at maximum induction of liaI [3]: about 10 μg/ml
21 | Triton X100 | − | 
22 | Tunicamycin | + | fold induction of liaI expression [2]: three-fold
